Measurements taken from patent US20230293629A1, “METHODS FOR ATTENUATING RELEASE OF INFLAMMATORY MEDIATORS AND PEPTIDES USEFUL THEREIN” (BIOMARCK PHARMACEUTICALS LTD., priority 2006, published 2023).
Where a SMILES comes first, the peptide text is derived from it. Where no end group is shown, it is not given here. The star is where a group is joined. Myristoyl = CCCCCCCCCCCCCC(=O)*

Test system: LPS-induced lung inflammation
Test: In vivo LPS-induced lung inflammation, BAL analysis
Design: species or system mice
Conditions: for Hb / MPO / LDH / Total Protein: BAL fluid; for Inhibition of neutrophil migration: relative to PBS/LPS treatment
Method: This example was performed essentially according to methods described by Cox, G, Crossley, J., and Xing, Z.; Macrophage engulfment of apoptotic neutrophils contributes to the resolution of acute pulmonary inflammation in vivo; Am. J. Respir. Cell Mol. Biol. 12:232-237, 1995; Hirano S., Quantitative time-course profiles of bronchoalveolar lavage cells following intratracheal instillation of lipopolysaccharide in mice, Ind. Health 35:353-358, 1997; and Ulich T R, Watson L R, Yin S M, Guo K Z, Wang P, Thang H, and del Castillo, J. Am. J. Pathol. 138:1485-1496, 1991.
Thus, six to seven week old CD1 female mice weighing 15-20 grams were obtained from Charles River laboratories and housed in groups of 5 mice per cage. The animals received standard rodent diet and filtered water ad libitum. The animals were housed under NIH prescribed guidelines at standard temperature (64° to 79° F.) and relative humidity of 30 to 70%.
Five treatment groups of mice, with 5 animals in each group, were treated either with PBS followed by PBS, with PBS followed by LPS, with (myristoylated) MANS peptide followed by LPS, with acetylated peptide of SEQ ID NO: 1, followed by LPS, or with acetylated peptide of SEQ ID NO: 106, followed by LPS.
Intranasal peptide instillation pre-treatment: A peptide of the invention to be evaluated in vivo for its ability to inhibit or reduce LPS-induced lung inflammation was dissolved in PBS at a concentration of 1 mM. Animals, anesthetized with 0.8% isofluorane by inhalation, were pretreated with 2×10 μL intranasal bolus of the peptide solution into one nostril 30 minutes prior to subsequent instillation with LPS.
Intranasal LPS instillation: Lipopolysaccharide (LPS) Endotoxin (Escherichia coli Serotype 011:B4 derived endotoxin; Sigma, St Louis, MO; see Sigma product information sheet L4130 titled Lipopolysaccharides from Escherichia coli 011:B4) was dissolved into phosphate buffered saline (PBS) at 2,500 μg/mL. To expose animals to endotoxin, a 10 μL intranasal bolus of 2,500 μg/ml endotoxin solution was administered to animals which had been anesthetized with 0.8% isofluorane by inhalation. The 10 μL bolus was applied into one nostril. Animals were monitored for labored breathing, lethargy, and decreased water/food intake following the endotoxin instillations.
Bronchoalveolar Lavage (BAL): Six hours after the last instillation, the animals were anesthetized (90 mg/kg Nembutal) and sacrificed by exsanguination. The lung was serially lavaged 2 times with 1.0 mL aliquots of PBS. The collected BAL fluid was centrifuged to remove the cells for subsequent counting and differential analysis. Recovered lavage fluid was used for analysis of total protein, myeloperoxidase (MPO), LDH, and hemoglobin.
Analysis: Aliquots of the BAL fluid were used immediately to assay for the levels of LDH, total protein, or hemoglobin using the COBAS Fara analyzer (COBAS FARA II automated analyzer; Roche Diagnostic Systems Inc., Montclair, NJ). An aliquot of BAL fluid was frozen at −80° C. for subsequent quantitation of myeloperoxidase (MPO) with a mouse-specific ELISA assay (Cell Sciences, Inc., Canton, Mass). BAL data were analyzed by standard techniques to examine differences between the control and treatment groups.

Compound: Ac-GAQFSKTAAKGEAAAERPGEAAVA
- Hb (Table 5 experiment, PBS/LPS 0.01, PBS/PBS 0.00): 0.01 g/dL
- MPO (Table 5 experiment, PBS/LPS 37.90, PBS/PBS 5.45): 30.79 ng/mL
- LDH (Table 5 experiment, PBS/LPS 89.9, PBS/PBS 84.0): 74.5 units/L
- Total Protein (Table 5 experiment, PBS/LPS 153.4, PBS/PBS 230.6): 182.75 µg/mL
- % Neutrophils of total counts (Table 5 experiment, PBS/LPS 65.5, PBS/PBS 22.1): 41.47%
- Total Neutrophil counts (Table 5 experiment, PBS/LPS 164,578, PBS/PBS 19,770): 105,499
- Total Cell Counts (Table 5 experiment, PBS/LPS 251,360, PBS/PBS 89,440): 254,400
- Inhibition of neutrophil migration: 35.9%

Compound: Ac-GAQFSKTAAK [Ac-GAQFSKTAAK]
- Hb (Table 6 experiment, PBS/LPS 0.00, PBS/PBS 0.00): 0.00 g/dL
- MPO (Table 6 experiment, PBS/LPS 7.19, PBS/PBS 4.88): 1.50 ng/mL
- LDH (Table 6 experiment, PBS/LPS 78.20, PBS/PBS 61.80): 106.86 units/L
- Total Protein (Table 6 experiment, PBS/LPS 116.4, PBS/PBS 113.8): 131.0 µg/mL
- % Neutrophils of total counts (Table 6 experiment, PBS/LPS 24.4, PBS/PBS 21.3): 3.0%
- Total Neutrophil counts (Table 6 experiment, PBS/LPS 80,077, PBS/PBS 66,521): 9,170
- Total Cell Counts (Table 6 experiment, PBS/LPS 327,680, PBS/PBS 312,620): 305,688
- Inhibition of neutrophil migration: 88.5%

Compound: CCCCCCCCCCCCCC(=O)NCC(=O)N[C@@H](C)C(=O)N[C@@H](CCC(N)=O)C(=O)N[C@@H](Cc1ccccc1)C(=O)N[C@@H](CO)C(=O)N[C@@H](CCCCN)C(=O)N[C@H](C(=O)N[C@@H](C)C(=O)N[C@@H](C)C(=O)N[C@@H](CCCCN)C(=O)NCC(=O)N[C@@H](CCC(=O)O)C(=O)N[C@@H](C)C(=O)N[C@@H](C)C(=O)N[C@@H](C)C(=O)N[C@@H](CCC(=O)O)C(=O)N[C@@H](CCCNC(=N)N)C(=O)N1CCC[C@H]1C(=O)NCC(=O)N[C@@H](CCC(=O)O)C(=O)N[C@@H](C)C(=O)N[C@@H](C)C(=O)N[C@H](C(=O)N[C@@H](C)C(=O)O)C(C)C)[C@@H](C)O [MANS] (Myristoyl-GAQFSKTAAKGEAAAERPGEAAVA-OH; C-terminus assumed)
- Total cells counted (BAL 6 h after intranasal LPS, 2×10 μL 1 mM peptide intranasal 30 min before LPS, PBS/LPS 264,200, PBS/PBS 157,020): 208,457
- Hb (Table 4 experiment, PBS/LPS 0.19, PBS/PBS 0.00): 0.05 g/dL
- MPO (Table 4 experiment, PBS/LPS 28.98, PBS/PBS 3.28): 9.49 ng/mL
- LDH (Table 4 experiment, PBS/LPS 60.40, PBS/PBS 68.20): 68.57 units/L
- Total Protein (Table 4 experiment, PBS/LPS 272.40, PBS/PBS 125.60): 175.00 µg/mL
- % Neutrophils of total cells (Table 4 experiment, PBS/LPS 41.7, PBS/PBS 18.7): 30.9%
- Total neutrophils counted (Table 4 experiment, PBS/LPS 110,061, PBS/PBS 29317): 64,481
- Inhibition of neutrophil migration: 41.4%
